Source: the supplement of paper PMC11061612

Assays:
[1] = tested on: CAL-148 (Breast Carcinoma); assay: Bliss excess, mean over the matrix (fraction); higher = more synergy
Outline: (§1)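 Bliss excess equals the observed combination effect minus the expected value EA + EB − EA·EB, where EA and EB are the effects of each agent alone. Combination Emax is the second-highest inhibition within the matrix. Inhibition was scaled from CellTiter-Glo 2.0 luminescence, with 0 set by vehicle wells and 1 by blank wells, after 72 hours of two-drug dosing of cells plated in 1536-well plates.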

ES4 (Ewing's Sarcoma) = assay: as above
Outline: as §1

[2] = tested on: DoTc2-4510 (Cervical Carcinoma); assay: as above
Outline: as §1

[3] = tested on: HCC1806 (Breast Carcinoma); assay: as above
Outline: as §1

[4] = tested on: LU-135 (Small Cell Lung Carcinoma); assay: as above
Outline: as §1

[5] = tested on: B-CPAP (Thyroid Gland Carcinoma); assay: as above
Outline: as §1

[6] = tested on: LNCaP-Clone-FGC (Prostate Carcinoma); assay: as above
Outline: as §1

[7] = tested on: KURAMOCHI (Ovarian Carcinoma); assay: as above
Outline: as §1

[8] = tested on: HT-1376 (Bladder Carcinoma); assay: as above
Outline: as §1

AGS (Gastric Carcinoma) = assay: as above
Outline: as §1

[9] = tested on: NCI-H2085 (Non-Small Cell Lung Carcinoma); assay: as above
Outline: as §1

[10] = tested on: ME-1 (Acute Myeloid Leukemia); assay: as above
Outline: as §1

[11] = tested on: SK-ES-1 (Ewing's Sarcoma); assay: as above
Outline: as §1

[12] = tested on: Calu-3 (Lung Adenocarcinoma); assay: as above
Outline: as §1

[13] = tested on: KP-1N (Pancreatic Carcinoma); assay: combination Emax (second highest fraction inhibited in the dose matrix, 72 h); higher = more inhibition; extreme values may be limits of the assay
Outline: as §1

42-MG-BA (Glioblastoma) = assay: as above
Outline: as §1

[14] = tested on: TE-15 (Esophageal Squamous Cell Carcinoma); assay: as above
Outline: as §1

[15] = tested on: Hs-578-T (Breast Carcinoma); assay: as above
Outline: as §1

T98G (Glioblastoma) = assay: as above
Outline: as §1

[16] = tested on: EC-GI-10 (Esophageal Squamous Cell Carcinoma); assay: as above
Outline: as §1

Compound | Bliss excess [1] | Bliss excess (ES4 (Ewing's Sarcoma)) | Bliss excess [2] | Bliss excess [3] | Bliss excess [4] | Bliss excess [5] | Bliss excess [6] | Bliss excess [7] | Bliss excess [8] | Bliss excess (AGS (Gastric Carcinoma)) | Bliss excess [9] | Bliss excess [10] | Bliss excess [11] | Bliss excess [12] | combination Emax [13] | combination Emax (42-MG-BA (Glioblastoma)) | combination Emax [14] | combination Emax [15] | combination Emax (T98G (Glioblastoma)) | combination Emax [16]
CN(CCO)CC[C@H](CSc1ccccc1)Nc1ccc(S(=O)(=O)NC(=O)c2ccc(N3CCC([C@@H](O)c4ccccc4-c4ccc(Cl)cc4)CC3)cc2)cc1S(=O)(=O)C(F)(F)F [AZD4320] + C[C@@H]1COCCN1C2=NC(=NC(=C2)C3(CC3)[S@](=N)(=O)C)C4=C5C=CNC5=NC=C4 [AZD6738] (first compound max 1 µM, 7x7, partner max 10 µM) | -0.0231 | 0.0351 | -0.0202 | 0.0208 | 0.0417 | -0.0422 | -0.0328 | 0.0158 | 0.0078 | -0.0162 | -0.0912 | 0.0166 | 0.0339 | -0.006 | 0.269 | 0.675 | 0.908 | 0.991 | 0.954 | 0.647
COc1cc2ncnc(Nc3ccc(F)c(Cl)c3)c2cc1OCCCN1CCOCC1 [Gefitinib] + CC(C)n1c(=O)n(C)c2cnc3cc(F)c(-c4ccc(OCCCN5CCCCC5)nc4)cc3c21 [AZD1390] (first compound max 10 µM, 7x7, partner max 0.3 µM) | -0.0344 | -0.0177 | -0.0601 | -0.0425 | -0.0801 | -0.0752 | -0.0491 | -0.0401 | -0.0387 | -0.0871 | -0.0515 | -0.0238 | -0.0733 | -0.048 | 0.004 | 0.32 | 0.762 | 0.319 | 0.12 | 0.642
Cc1cc2ncnn2cc1Nc1ncc2c(n1)n(C1CCOCC1)c(=O)n2C [AZD7648] + C=CCn1c(=O)c2cnc(Nc3ccc(N4CCN(C)CC4)cc3)nc2n1-c1cccc(C(C)(C)O)n1 [AZD1775] (first compound max 10 µM, partner max 1 µM) | 0.0051 | 0.0337 | -0.0004 | 0.0373 | -0.0169 | -0.0273 | -0.0273 | -0.0501 | 0.0121 | -0.0152 | 0.0418 | 0.0321 | 0.0322 | -0.0073 | 0.349 | 0.439 | 0.565 | 0.77 | 0.711 | 0.78
NC1(C(=O)N[C@@H](CCO)c2ccc(Cl)cc2)CCN(c2ncnc3[nH]ccc23)CC1 [Capivasertib] + CCN(CCO)CCCOc1ccc2c(Nc3cc(CC(=O)Nc4cccc(F)c4)[nH]n3)ncnc2c1 [AZD2811] (first compound max 10 µM, 7x7, partner max 1 µM) | -0.0142 | 0.0317 | -0.0749 | 0.0012 | -0.0334 | -0.0298 | 0.006 | -0.0444 | -0.0314 | 0.0129 | -0.0318 | -0.055 | -0.0359 | 0.0092 | 0.288 | 0.782 | 0.449 | 0.732 | 0.437 | 0.754
COc1cccc2c1C(=O)c1c(O)c3c(c(O)c1C2=O)C[C@@](O)(C(=O)CO)C[C@@H]3O[C@H]1C[C@H](N)[C@H](O)[C@H](C)O1 [Doxorubicin] + Cc1cc2ncnn2cc1Nc1ncc2c(n1)n(C1CCOCC1)c(=O)n2C [AZD7648] (first compound max 1 µM, 7x7, partner max 10 µM) | 0.165 | 0.0761 | 0.0248 | 0.0499 | 0.0388 | 0.106 | 0.0417 | 0.0251 | -0.0544 | 0.109 | 0.0299 | 0.027 | 0.143 | -0.0006 | 0.675 | 0.925 | 0.721 | 0.856 | 0.597 | 0.693
CC1(C)CCC(CN2CCN(c3ccc(C(=O)NS(=O)(=O)c4ccc(NCC5CCOCC5)c([N+](=O)[O-])c4)c(Oc4cnc5[nH]ccc5c4)c3)CC2)=C(c2ccc(Cl)cc2)C1 [Venetoclax] + Cn1cnc2c(F)c(Nc3ccc(Br)cc3Cl)c(C(=O)NOCCO)cc21 [Selumetinib] (first compound max 1 µM, 7x7, partner max 3 µM) | -0.0148 | -0.0412 | -0.0414 | -0.025 | -0.0545 | -0.0446 | -0.0459 | -0.0333 | -0.0411 | -0.0792 | -0.0271 | 0.055 | 0.0234 | -0.0214 | 0.191 | 0.215 | 0.263 | 0.822 | 0.163 | 0.313
CC1(C)CCC(CN2CCN(c3ccc(C(=O)NS(=O)(=O)c4ccc(NCC5CCOCC5)c([N+](=O)[O-])c4)c(Oc4cnc5[nH]ccc5c4)c3)CC2)=C(c2ccc(Cl)cc2)C1 [Venetoclax] + CN(C)CCCOc1ccc(-c2ccc3ncc4c(c3c2)n(C2CCOCC2)c(=O)n4C)cn1 [AZD0156] (first compound max 1 µM, 7x7, partner max 1 µM) | -0.0006 | -0.0226 | -0.0148 | 0.0097 | -0.0012 | 0.0113 | -0.0503 | -0.0039 | -0.0151 | -0.0191 | -0.0295 | -0.0045 | 0.0502 | -0.0113 | 0.138 | 0.367 | 0.451 | 0.793 | 0.332 | 0.221
CC1(C)CCC(CN2CCN(c3ccc(C(=O)NS(=O)(=O)c4ccc(NCC5CCOCC5)c([N+](=O)[O-])c4)c(Oc4cnc5[nH]ccc5c4)c3)CC2)=C(c2ccc(Cl)cc2)C1 [Venetoclax] + C[C@@H](Nc1cc(F)cc(F)c1)c1cc(C(=O)N(C)C)cc2c(=O)cc(N3CCOCC3)oc12 [AZD8186] (first compound max 1 µM, 7x7, partner max 3 µM) | 0.0101 | -0.0554 | -0.0078 | -0.0149 | 0.121 | -0.0151 | -0.0066 | -0.0467 | -0.0446 | -0.0458 | 0.0025 | 0.0239 | 0.0802 | -0.0189 | 0.235 | 0.391 | 0.369 | 0.734 | 0.411 | 0.131
COc1cccc(OCCCN)c1-c1cc(Nc2cnc(C#N)cn2)n[nH]1 [Prexasertib] + C[C@@H]1COCCN1C2=NC(=NC(=C2)C3(CC3)[S@](=N)(=O)C)C4=C5C=CNC5=NC=C4 [AZD6738] (first compound max 1 µM, 7x7, partner max 10 µM) | 0.0988 | -0.0489 | -0.0218 | -0.0472 | 0.0442 | -0.0345 | -0.0427 | -0.0707 | -0.0105 | 0.0164 | -0.0092 | 0.0637 | -0.0132 | -0.0108 | 0.324 | 0.904 | 0.874 | 0.912 | 0.905 | 0.713
C[C@@H](c1ccc2nccn2c1)n1nnc2ncc(-c3cnn(C)c3)nc21 [Savolitinib] + CC1(C)CCC(CN2CCN(c3ccc(C(=O)NS(=O)(=O)c4ccc(NCC5CCOCC5)c([N+](=O)[O-])c4)c(Oc4cnc5[nH]ccc5c4)c3)CC2)=C(c2ccc(Cl)cc2)C1 [Venetoclax] (first compound max 1 µM, 7x7, partner max 1 µM) | -0.0359 | -0.0443 | -0.0601 | -0.0367 | -0.0561 | -0.0453 | -0.0593 | -0.0274 | -0.0443 | -0.0729 | -0.0364 | -0.0192 | -0.0545 | -0.0347 | 0.13 | 0.166 | 0.287 | 0.312 | 0.159 | 0.116
NC1(C(=O)N[C@@H](CCO)c2ccc(Cl)cc2)CCN(c2ncnc3[nH]ccc23)CC1 [Capivasertib] + Cn1cnc2c(F)c(Nc3ccc(Br)cc3Cl)c(C(=O)NOCCO)cc21 [Selumetinib] (first compound max 10 µM, 7x7, partner max 10 µM) | 0.0597 | -0.0219 | 0.0133 | 0.0578 | 0.0413 | 0.0496 | -0.0143 | 0.0079 | -0.0149 | 0.0697 | 0.0035 | -0.0089 | 0.0507 | 0.0295 | 0.393 | 0.737 | 0.633 | 0.746 | 0.49 | 0.927
CN(CCO)CC[C@H](CSc1ccccc1)Nc1ccc(S(=O)(=O)NC(=O)c2ccc(N3CCC([C@@H](O)c4ccccc4-c4ccc(Cl)cc4)CC3)cc2)cc1S(=O)(=O)C(F)(F)F [AZD4320] + CN(C)CCCOc1ccc(-c2ccc3ncc4c(c3c2)n(C2CCOCC2)c(=O)n4C)cn1 [AZD0156] (first compound max 1 µM, 7x7, partner max 1 µM) | 0.0183 | 0.0223 | -0.12 | 0.0142 | 0.0332 | -0.0065 | -0.089 | -0.0367 | -0.03 | -0.0561 | -0.0242 | -0.0069 | 0.047 | -0.0153 | 0.194 | 0.274 | 0.0786 | 0.531 | 0.126 | 0.193
CN(CCO)CC[C@H](CSc1ccccc1)Nc1ccc(S(=O)(=O)NC(=O)c2ccc(N3CCC([C@@H](O)c4ccccc4-c4ccc(Cl)cc4)CC3)cc2)cc1S(=O)(=O)C(F)(F)F [AZD4320] + CCN(CCO)CCCOc1ccc2c(Nc3cc(CC(=O)Nc4cccc(F)c4)[nH]n3)ncnc2c1 [AZD2811] (first compound max 1 µM, 7x7, partner max 1 µM) | -0.0027 | 0.0157 | 0.114 | -0.0127 | -0.0124 | 0.0126 | -0.0105 | 0.0224 | 0.026 | 0.192 | -0.0145 | 0.0068 | 0.0156 | -0.0142 | 0.0993 | 0.831 | 0.141 | 0.918 | 0.554 | 0.401
